According to patent US10729810B2, “Methods, systems, and compositions for promoting bone growth” (Cayman Chemical Company, Inc., priority 2013, dated 2020):
Each block holds one compound with its values, some of them ahead of it.

Tests used:
[1] = biological target: T1, Human Prostanoid EP4 Receptor (Homo sapiens, UniProt P35408); assay: Radioligand binding assay, agonist site of human prostanoid EP4 receptor in transfected HEK-293 cells; settings: for hEP4 receptor binding, % @100: @100, printed in the IC50 (nM) column
T1 construct: expressed in transfected cells; host or cells: HEK-293 cells (membrane homogenates)
Description: Radioligand Binding Assay for the Evaluation of the Affinity of Compounds for the Agonist Site of the Human Prostanoid EP4 Receptor in Transfected HEK-293 Cells
Following incubation, the samples are filtered rapidly under vacuum through glass fiber filters (GF/B, Packard) presoaked with 0.3% PEI and rinsed several times with ice-cold 50 mM Tris-HCl using a 96-sample cell harvester (Unifilter, Packard). The filters are dried then counted for radioactivity in a scintillation counter (Topcount, Packard) using a scintillation cocktail (Microscint 0, Packard).

rat calvarial defect [2] = assay: Rat calvarial defect model, drug in calcium phosphate cement suspended in demineralized bone matrix putty; assay type: in vivo, female Sprague Dawley rats; settings: 2.6 mm defect, eight weeks
Description: The rat calvarial defect model is a widely used model through which the ability of a treatment agent to induce bone formation is assessed (Aghaloo et al., The effect of NELL1 and bone morphogenetic protein-2 on calvarial bone regeneration, J. Oral Maxillofac. Surg. 2010: 68:300-308; Mark et al., Repair of calvarial nonunions by osteogenin, a bone-inductive protein, Plast. Reconstr. Surg. 1990: 86:623-30).
Bone defects are created by removal of bone from the cranium of female Sprague Dawley rats by a bone trephine (cranial defect). Cranial defects are 2.6 mm in diameter and the cranium approximately 1 mm thick. A matrix of approximately 2 mm thickness is applied to the defect. Thus the dosing volume for each defect is calculated as π*r^2*matrix thickness=3.14*1.3^2*2=10.61 μl and rounded to 11 μl for purposes of dose calculation.
EXAMPLE 2C is tested at seven doses with five rats in each group. These are 3, 10, 30, 100 and 300 μg/ml and 1 and 3 mg/ml. A negative control group treated with dosing matrix containing no drug (Vehicle) as well as a positive control group treated with 50 μg/ml recombinant human bone morphogenetic protein 2 (BMP-2) are also included in the study. […]
The area measured each week is compared to that of the first week and the degree of repair calculated by the following formula: (original area−current area)/original area*100 […]

rat calvarial defect [3] = assay: Rat calvarial defect model, drug-cement loaded into intact demineralized bone matrix; assay type: in vivo, female Sprague Dawley rats; settings: 5.0 mm defect; 10 mg/gm of cement; four weeks; FIG. 4
Description: Bone defects are created by removal of bone from the cranium of female Sprague Dawley rats by a bone trephine (cranial defect). Cranial defects are 5.0 mm in diameter and the cranium approximately 1 mm thick.
EXAMPLE 2E′ is delivered inside calcium phosphate cement that, after loading with drug set inside three voids each of approximately 1.0 mm in diameter drilled into a solid demineralized bone matrix circular block of 5.0 mm in diameter and 1 mm thickness. EXAMPLE 2E′ is tested at 10 mg/gm of cement. A negative control group treated with dosing matrix containing no drug (Vehicle) is also included in the study.
Dosing solutions are made from a 5 mg/ml EXAMPLE 2E′ stock which is made by dissolving 2.08 mg of neat EXAMPLE 2E′ in 416 μl of 100% ethanol.
The volume of each dosing void is π*r^2*matrix thickness=3.14*0.5^2*1=0.8 μl. Thus a 5 mm solid demineralized matrix with three voids filled with cement contains 2.4 μl of loading cement. The cement that is used weighs 107 mg for 100 μl volume. Thus 2.4 ul of volume is occupied by 2.6 mg of cement. A 10 mg/gm dosing cement provides 26 ug of EXAMPLE 2E′ for each 5 mm intact demineralized bone matrix block. […]
The area measured each week is compared to that of the first week and the degree of repair calculated by the following formula: (original area−current area)/original area*100

osteoporotic femur = assay: Bone density of osteoporotic femur after osteotomy with drug-cement insert in ovariectomized rats; assay type: in vivo, Female Sprague Dawley rats
Description: Dosing solutions are made from a 5 mg/ml Example 2E' stock which is made by dissolving 2.08 mg of neat Example 2E' in 416 μl of 100% ethanol. The dosing solution for Example 2E' was made by adding 44.4 μL of the 5 mg/ml stock to 22.2 mg of calcium phosphate cement powder. The Vehicle dosing solution was made by adding 50.4 μl of ethanol containing no Example 2E' to 25.2 mg of calcium phosphate cement powder. After the ethanol has been vented off, the cement is wetted with a setting solution and mixed thoroughly for 1 minute as the cement begins to set. The cement is separated into five aliquots and placed on a glass microscope slide. […] After obtaining the CT image the cross sectional density of the bone 3 mm dorsal to the implant site is measured in three places and the measurements averaged. The density of the phantom is measured at the same time and is compared to the phantom measurement on week 0. […] For example the density of the femur of a vehicle treated rat imaged on week 0 is measured at 3028, 3597 and 3329 units (average=3318) and the phantom measured 4209 units. […] The relative density on bone at week 3 compared to week 0 is then calculated as: average week 3normalized/average week 0*100=3378/3318*100=101.8% The mean change in bone density of both groups after three weeks of treatment is shown in FIG. 5. […]

T1 sequence (P35408 whole entry): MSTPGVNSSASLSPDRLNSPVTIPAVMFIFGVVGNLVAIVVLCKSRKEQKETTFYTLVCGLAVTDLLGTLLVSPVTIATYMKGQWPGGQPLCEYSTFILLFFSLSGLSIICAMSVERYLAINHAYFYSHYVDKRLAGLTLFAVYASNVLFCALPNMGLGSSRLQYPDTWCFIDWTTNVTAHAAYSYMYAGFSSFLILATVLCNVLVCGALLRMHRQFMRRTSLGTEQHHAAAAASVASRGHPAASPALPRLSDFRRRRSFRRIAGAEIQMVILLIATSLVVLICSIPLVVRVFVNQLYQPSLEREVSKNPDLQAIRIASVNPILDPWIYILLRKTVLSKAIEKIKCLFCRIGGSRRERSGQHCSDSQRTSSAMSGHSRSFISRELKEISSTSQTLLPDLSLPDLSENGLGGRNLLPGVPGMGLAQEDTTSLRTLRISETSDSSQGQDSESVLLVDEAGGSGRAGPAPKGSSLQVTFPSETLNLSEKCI

SMILES: CCCC#CCC(C)[C@H](O)/C=C/[C@H]1CCC(=O)N1CCCCCCC(=O)O (mixture of isomers) [3C′, 7-((2R)-2-((3S,4R/S,E)-3-hydroxy-4-methyldec-1-en-6-yn-1-yl)-5-oxopyrrolidin-1-yl)heptanoic acid]
melting point: 104 to 105 °C

SMILES: CCC#CC[C@H](C)[C@H](O)/C=C/[C@H]1CCC(=O)N1CCCCCCC(=O)O [2E′, 7-((R)-2-((3S,4S,E)-3-hydroxy-4-methylnon-1-en-6-yn-1-yl)-5-oxopyrrolidin-1-yl)heptanoic acid]
Healing of a calvarial bone defect (rat calvarial defect [2]; 3 mg/ml in cement-DBM putty 1:8, FIG. 2): Accelerated Healing
Healing of a calvarial bone defect, loaded into intact demineralized bone matrix (rat calvarial defect [3]): Accelerated Healing
Bone density of osteoporotic femur (osteoporotic femur; 10 mg/gm cement insert, three weeks, FIG. 5): Increased Bone Density

SMILES: CCC#CC[C@H](C)[C@H](O)/C=C/[C@H]1CC(F)(F)C(=O)N1CCCCCCC(=O)O [Example 2C, 7-((R)-3,3-difluoro-5-((3S,4S,E)-3-hydroxy-4-methylnon-1-en-6-yn-1-yl)-2-oxopyrrolidin-1-yl)heptanoic acid]
Healing of a calvarial bone defect (rat calvarial defect [2]; 3 μg/ml to 3 mg/ml in cement-DBM putty 1:8, FIG. 1): Accelerated Healing

SMILES: C[C@@H](CCCc1ccccc1)[C@H](O)/C=C/[C@H]1CC(F)(F)C(=O)N1CCCc1ccc(C(=O)O)s1 [Example 28C, 5-(3-((R)-3,3-difluoro-5-((3S,4S,E)-3-hydroxy-4-methyl-7-phenylhept-1-en-1-yl)-2-oxopyrrolidin-1-yl)propyl)thiophene-2-carboxylic acid]
Bone density of osteoporotic femur (osteoporotic femur; 100 μg/gm or 300 μg/gm cement insert, twenty weeks, FIG. 6): Increased Bone Density

The next lines start with the values.

hEP4 receptor binding, % @100 [1]: 86% @100
SMILES: CC#CCC(C)[C@H](O)/C=C/[C@H]1CCC(=O)N1CCCCCCC(=O)O (mixture of isomers) [Example 1C′, 7-((2R)-2-((3S,4R/S,E)-3-hydroxy-4-methyloct-1-en-6-yn-1-yl)-5-oxopyrrolidin-1-yl)heptanoic acid]

hEP4 receptor binding, % @100 [1]: 11% @100
SMILES: CC#CCC(C)[C@@H](O)/C=C/[C@H]1CCC(=O)N1CCCCCCC(=O)O (mixture of isomers) [Example 1D′, 7-((2R)-2-((3R,4R/S,E)-3-hydroxy-4-methyloct-1-en-6-yn-1-yl)-5-oxopyrrolidin-1-yl)heptanoic acid]

IC50 ([1]; 0.5 nM [3H]PGE2, HEK-293 cell membrane homogenates, read-out: hEP4 receptor binding (nM) IC50): 2.4 nM
Ki ([1]; 0.5 nM [3H]PGE2, HEK-293 cell membrane homogenates, read-out: hEP4 receptor binding (nM) Ki): 0.89 nM
SMILES: C[C@@H](CCCc1ccccc1)[C@H](O)/C=C/[C@H]1CC(F)(F)C(=O)N1CCCCCCC(=O)O [Example 6D, 7-((R)-3,3-difluoro-5-((3S,4S,E)-3-hydroxy-4-methyl-7-phenylhept-1-en-1-yl)-2-oxopyrrolidin-1-yl)heptanoic acid]
